Source: patent publication US5849259A, “3-,8-substituted deuteroporphyrin derivatives, pharmaceutical agents containing the latter and process for their production” (priority 1992, dated 1998)

Legend:
[1] = tested on: Novikoff-hepatoma; test: Signal intensity change in tissues of tumor-bearing (Novikoff-hepatoma, i.m.) nude rats, Bruker Biospec 2.35 Tesla, MSSE; assay type: in vivo, nude rats (LEW/Mol rnu/rnu); conditions: 0.1 mmol/kg i.v.
Excerpt: The measurements were made with a multi slice single echo sequence (MSSE). […] […] The relative intensities relative to the respective initial intensity (=1.00 set) are indicated.

[2] = Tissue relaxation times T1 and T2 (Bruker minispec pc 120) after 0.1 mmol/kg i.v.; assay type: in vivo, nude mice (Balb/c nu/nu)
Protocol: e) 9 nude mice (Balb/c nu/nu) with subcutaneously implanted colon cancers (HT29 and WiDr) were each administered by i.v. 0.1 mmol/kg of the deuteroporphyrin derivative of the compound according to example 1c (10 mmol/l dissolved in bidistilled water, pH 7.2, 37° C.). After 0.5, 3 and 24 hours, the animals were killed and dissected. The tissue concentrations were determined after corresponding working-up (HNO3 conc.) by ICP-AES and calculated for % of the administered dose per gram of tissue net weight. Moreover, tissue relaxation times T1 and T2 were determined (Bruker minispec pc 120).
f) 9 nude mice (Balb/c nu/nu) with subcutaneously implanted carcinomas (HT29, WiDr and MATLu) were each administered by i.v. 0.1 mmol/kg of the deuteroporphyrin derivative of example 1c (10 mmol/L dissolved in bidistilled water, pH 7.2, 37° C.). After 2 hours, the animals were killed and dissected. The tissue concentrations were determined after corresponding working-up (HNO3 conc.) by ICP-AES and calculated for % of the administered dose per gram of tissue net weight. Moreover, tissue relaxation times T1 and T2 were determined (Bruker minispec pc 120). To determine the blank readings, control animals were correspondingly studied without KM-administration.

[3] = Relaxivity; assay type: physicochemical

N,N'-Bis[9-carboxylato-2,5,8-tris(carboxylatomethyl)-2,5,8-triazanonyl-carbamoyl]-mesoporphyrin-IX-13,17-diamide, digadolinium complex, disodium salt [Example 1c]
elimination route [1]: eliminated mainly renally
average enhancement, Kidneys ([1]; 1 min): 1.67 ± 0.35
average enhancement, Liver ([1]; 1 min): 1.43 ± 0.24
average enhancement, Muscle ([1]; 1 min): 1.60 ± 0.01
average enhancement, Tumor ([1]; 1 min): 1.63 ± 0.24
average enhancement, Kidneys ([1]; 15 min): 2.13 ± 0.28
average enhancement, Liver ([1]; 15 min): 1.34 ± 0.22
average enhancement, Muscle ([1]; 15 min): 1.54 ± 0.06
average enhancement, Tumor ([1]; 15 min): 1.71 ± 0.19
average enhancement, Kidneys ([1]; 30 min): 2.14 ± 0.38
average enhancement, Liver ([1]; 30 min): 1.31 ± 0.21
average enhancement, Muscle ([1]; 30 min): 1.47 ± 0.08
average enhancement, Tumor ([1]; 30 min): 1.72 ± 0.23
average enhancement, Kidneys ([1]; 45 min): 2.10 ± 0.30
average enhancement, Liver ([1]; 45 min): 1.17 ± 0.16
average enhancement, Muscle ([1]; 45 min): 1.41 ± 0.10
average enhancement, Tumor ([1]; 45 min): 1.79 ± 0.21
average enhancement, Kidneys ([1]; 60 min): 2.12 ± 0.19
average enhancement, Liver ([1]; 60 min): 1.31 ± 0.09
average enhancement, Muscle ([1]; 60 min): 1.33 ± 0.05
average enhancement, Tumor ([1]; 60 min): 1.78 ± 0.24
average enhancement, Kidneys ([1]; 75 min): 1.93 ± 0.19
average enhancement, Liver ([1]; 75 min): 1.37 ± 0.05
average enhancement, Muscle ([1]; 75 min): 1.37 ± 0.01
average enhancement, Tumor ([1]; 75 min): 1.64 ± 0.17
average enhancement, Kidneys ([1]; 90 min): 1.96 ± 0.08
average enhancement, Liver ([1]; 90 min): 1.22 ± 0.24
average enhancement, Muscle ([1]; 90 min): 1.24 ± 0.03
average enhancement, Tumor ([1]; 90 min): 1.75 ± 0.27
average enhancement, Kidneys ([1]; 120 min): 1.92 ± 0.33
average enhancement, Liver ([1]; 120 min): 1.23 ± 0.07
average enhancement, Muscle ([1]; 120 min): 1.28 ± 0.08
average enhancement, Tumor ([1]; 120 min): 1.77 ± 0.23
average enhancement, Kidneys ([1]; 150 min): 1.86 ± 0.18
average enhancement, Liver ([1]; 150 min): 1.16 ± 0.22
average enhancement, Muscle ([1]; 150 min): 1.20 ± 0.06
average enhancement, Tumor ([1]; 150 min): 1.73 ± 0.23
average enhancement, Kidneys ([1]; 180 min): 1.84 ± 0.24
average enhancement, Liver ([1]; 180 min): 1.07 ± 0.20
average enhancement, Muscle ([1]; 180 min): 1.15 ± 0.04
average enhancement, Tumor ([1]; 180 min): 1.85 ± 0.09
average enhancement, Kidneys ([1]; 190 min): 1.73 ± 0.00
average enhancement, Liver ([1]; 190 min): 1.27 ± 0.00
average enhancement, Muscle ([1]; 190 min): 1.21 ± 0.00
average enhancement, Tumor ([1]; 190 min): 1.45 ± 0.00
signal intensity, liver and muscles ([1]; after 2-3 hours): the initial intensity almost returned
increase in the intensity, studied tissues ([1]; directly after administration): ~60%
signal intensity, tumor ([1]; during the observation time): remained at an almost unchanged high level
signal intensity, kidneys relative to tumors ([1]; up to 150 minutes): high above that which could be determined in the tumors
tissue relaxation time T1, HT29 tumor ([2]; 0.5 hour): 410 ± 30 ms
tissue relaxation time T1, WiDr tumor ([2]; 0.5 hour): 320 ± 40 ms
tissue relaxation time T1, kidneys ([2]; 0.5 hour): 160 ± 10 ms
tissue relaxation time T1, liver ([2]; 0.5 hour): 220 ± 20 ms
tissue relaxation time T1, muscle ([2]; 0.5 hour): 500 ± 40 ms
tissue relaxation time T2, HT29 tumor ([2]; 0.5 hour): 81 ± 4 ms
tissue relaxation time T2, WiDr tumor ([2]; 0.5 hour): 67 ± 7 ms
tissue relaxation time T2, kidneys ([2]; 0.5 hour): 42 ± 1 ms
tissue relaxation time T2, liver ([2]; 0.5 hour): 34 ± 3 ms
tissue relaxation time T2, muscle ([2]; 0.5 hour): 32 ± 1 ms
effect on tissue relaxation times in prostate cancer (MATLu) versus colon cancers ([2]; 2 hours): greater than in the colon cancers
tissue relaxation time T1, HT29 tumor ([2]; 2 hours): 375 ± 32 ms
tissue relaxation time T1, MATLu ([2]; 2 hours): 361 ± 65 ms
tissue relaxation time T1, WiDr tumor ([2]; 2 hours): 358 ± 70 ms
tissue relaxation time T2, HT29 tumor ([2]; 2 hours): 94 ± 7 ms
tissue relaxation time T2, MATLu ([2]; 2 hours): 102 ± 10 ms
tissue relaxation time T2, WiDr tumor ([2]; 2 hours): 110 ± 9 ms
tissue relaxation time T1, HT29 tumor ([2]; 3 hours): 440 ± 70 ms
tissue relaxation time T1, WiDr tumor ([2]; 3 hours): 430 ± 50 ms
tissue relaxation time T1, kidneys ([2]; 3 hours): 230 ± 30 ms
tissue relaxation time T1, liver ([2]; 3 hours): 220 ± 30 ms
tissue relaxation time T1, muscle ([2]; 3 hours): 560 ± 40 ms
tissue relaxation time T2, HT29 tumor ([2]; 3 hours): 72 ± 8 ms
tissue relaxation time T2, WiDr tumor ([2]; 3 hours): 72 ± 7 ms
tissue relaxation time T2, kidneys ([2]; 3 hours): 47 ± 5 ms
tissue relaxation time T2, liver ([2]; 3 hours): 42 ± 2 ms
tissue relaxation time T2, muscle ([2]; 3 hours): 36 ± 3 ms
tissue relaxation time T1, HT29 tumor ([2]; 24 hours): 540 ± 20 ms
tissue relaxation time T1, WiDr tumor ([2]; 24 hours): 640 ± 10 ms
tissue relaxation time T1, kidneys ([2]; 24 hours): 240 ± 20 ms
tissue relaxation time T1, liver ([2]; 24 hours): 260 ± 10 ms
tissue relaxation time T1, muscle ([2]; 24 hours): 660 ± 10 ms
tissue relaxation time T2, HT29 tumor ([2]; 24 hours): 83 ± 7 ms
tissue relaxation time T2, WiDr tumor ([2]; 24 hours): 85 ± 2 ms
tissue relaxation time T2, kidneys ([2]; 24 hours): 54 ± 10 ms
tissue relaxation time T2, liver ([2]; 24 hours): 48 ± 7 ms
tissue relaxation time T2, muscle ([2]; 24 hours): 31 ± 1 ms
shortening of T1 tissue relaxation times, all three tumors ([2]; HT29, WiDr, MATLu, 2 hours): 2-3 factor
shortening of T1 tissue relaxation times, both tumors ([2]; HT29 and WiDr): 2-3 factor
tissue relaxation time T1, kidneys ([2]; HT29 mice, 2 hours): 150 ± 12 ms
tissue relaxation time T1, liver ([2]; HT29 mice, 2 hours): 174 ± 8 ms
tissue relaxation time T1, muscle ([2]; HT29 mice, 2 hours): 489 ± 57 ms
tissue relaxation time T2, kidneys ([2]; HT29 mice, 2 hours): 59 ± 3 ms
tissue relaxation time T2, liver ([2]; HT29 mice, 2 hours): 49 ± 2 ms
tissue relaxation time T2, muscle ([2]; HT29 mice, 2 hours): 56 ± 2 ms
tissue relaxation time T1, kidneys ([2]; MATLu mice, 2 hours): 171 ± 20 ms
tissue relaxation time T1, liver ([2]; MATLu mice, 2 hours): 191 ± 10 ms
tissue relaxation time T1, muscle ([2]; MATLu mice, 2 hours): 506 ± 10 ms
tissue relaxation time T2, kidneys ([2]; MATLu mice, 2 hours): 60 ± 1 ms
tissue relaxation time T2, liver ([2]; MATLu mice, 2 hours): 51 ± 2 ms
tissue relaxation time T2, muscle ([2]; MATLu mice, 2 hours): 54 ± 2 ms
tissue relaxation time T1, kidneys ([2]; WiDr mice, 2 hours): 159 ± 30 ms
tissue relaxation time T1, liver ([2]; WiDr mice, 2 hours): 180 ± 30 ms
tissue relaxation time T1, muscle ([2]; WiDr mice, 2 hours): 508 ± 40 ms
tissue relaxation time T2, kidneys ([2]; WiDr mice, 2 hours): 64 ± 2 ms
tissue relaxation time T2, liver ([2]; WiDr mice, 2 hours): 53 ± 5 ms
tissue relaxation time T2, muscle ([2]; WiDr mice, 2 hours): 62 ± 3 ms
relaxivity [3]: 17.86 1 mmol^-1 s^-1
